Measured values reported in patent US20210323940A1 (OCEANS LTD., priority 2018, published 2021).
Converted amounts (≈) assume the structure as drawn.

Assays:
[1] = Murine flank tumour model, synthesized compound (II) (DHODO): body weights; format: in vivo, nude mice (strain J:NU)
Procedure: (§1) To establish the tumours, MDA-MB-231 breast cancer cells (2.5 million cells in 100 pl 50:50 matrigel:DMEM) were injected subcutaneously into both right and left flanks. Tumours were evaluated over a 2-week period until sufficient volume growth (approximately 20 mm3) for subsequent analysis had occurred. During this period, body weights were measured twice weekly. Mice with established tumours were treated every second day by intraperitoneal injections of test compounds over a 4-week time course. From each group a minimum of 15 tumours were selected for analysis. Tumours were measured weekly using external calipers and volumes established using the modified ellipsoidal formula: tumour volume=0.5 (length×width2). In addition, body weights and general animal health were assessed twice weekly during the treatment period. At study termination, mice were sacrificed and tumours excised from the flank was weighed. To evaluate tumour metastasis, an explorative necropsy was conducted in each mouse and the presence and frequency of additional tumours at sites distal to the flank were assessed.

[2] = system: tumour cell lines; assay: CIMA assay, overall statements on the panel of human cell lines; format: cell-based; settings: synthetic compound, 72 h, listed as Synthesized compound II
Procedure: Prepared extracts were assessed following chronic exposure conditions in which cells were seeded at 2×10^3 cells/well (96 wells-plate) and incubated with test compounds for 72 h. Each compound was evaluated over a range of concentrations (0, 10, 25, 50 or 100 μg/ml). Cell proliferation was initially assessed using a standard colorimetric indicator of metabolic activity (CIMA) assay. In this assay, tetrazole reduction was evaluated as a measure of metabolic function that evaluates mitochondrial activity to determine the extent of cell proliferation within a culture. This assay is based on the reduction of yellow tetrazolium salt to purple formazan by mitochondrial reductases enzyme in viable cells, resulting in a color change that confers a change in absorbance. […]
Crude extract #1 was fractionated into five fractions by C-18 SPE column separation using 15 ml each of 5% methanol (fraction 1), 25% methanol (fraction 2), 50% methanol (fraction 3), 100% methanol (fraction 4) and methanol:dichloromethane (1:1) (fraction 5). Extracts were fractionated and the resulting fractions were evaluated using CIMA assay. […]
Experimental: Stock solutions of the test compounds were prepared in dimethylsulfoxide (DMSO) at 10 mg/ml and stored at −20° C. until used. […] Cell proliferation was initially assessed using a standard colorimetric indicator of metabolic activity (CIMA) assay. […]

[3] = system: MDA-MB-231 breast cancer cells; assay: Murine flank tumour model, synthesized compound (II) (DHODO): tumour volume; format: in vivo, nude mice (strain J:NU)
Procedure: as §1, with “Test material was dissolved in DMSO and the final injectable solution was prepared using PBS. Homozygous outbred nude mice (strain J:NU, 6-weeks old, female) suitable as immune-deficient tumour transplant hosts will be procured from a commercial supplier (Jackson Labs, Maine, USA) and acclimatized in a barrier facility (AVC) for one week. Mice were weighed and random groups of ten mice were established based on the tumour volume and body weight as follows: To establish” for “To establish”

[4] = system: MDA-MB-231 (mammary gland adenocarcinoma); assay: CIMA assay (MTT, 72 h); format: cell-based, human; settings: Homo sapiens, MDA-MB-231
Procedure: Experimental: Stock solutions of the test compounds were prepared in dimethylsulfoxide (DMSO) at 10 mg/ml and stored at −20° C. until used. This preparation ensures that the DMSO content delivered to cells in culture never exceeds 1%. […] Cell proliferation was initially assessed using a standard colorimetric indicator of metabolic activity (CIMA) assay. In this assay, reduction of yellow tetrazolium salt (MTT) to purple formazan by mitochondrial reductases enzymes in viable cells were measured as change in absorbance (λ=500-600).
Seven human cell lines were evaluated: U373 (glioblastoma-astrocytoma), A549 (lung carcinoma), PC3 (prostate adenocarcinoma), THP1 (acute monocytic leukemia), MDA-MB-231 (mammary gland adenocarcinoma), SKOV3 (ovarian adenocarcinoma) and CCD1079Sk (normal skin fibroblast) cells.

IC50 ([4]; 72 h): 34.3 µg/mL (≈ 110 µM)
SMILES: CCCCC[C@H](O)[C@H](O)/C=C/[C@@H]1CCCCCCCC(=O)O1 [compound (II), 12R, 13S-Dihydroxy-10-Octadecen-9S-olide]
Body weight change Δ over the four-week trial ([1]; 1 mg/kg): 0.6 g | Body weight ([1]; 1 mg/kg, Week 1): 21.9 g | Body weight ([1]; 1 mg/kg, Week 2): 22.5 g | Body weight ([1]; 1 mg/kg, Week 3): 22.1 g | Body weight ([1]; 1 mg/kg, Week 4): 22.5 g | Body weight change Δ over the four-week trial ([1]; 5 mg/kg): 0.9 g | Body weight ([1]; 5 mg/kg, Week 1): 23.8 g | Body weight ([1]; 5 mg/kg, Week 2): 24.8 g | Body weight ([1]; 5 mg/kg, Week 3): 24.3 g | Body weight ([1]; 5 mg/kg, Week 4): 24.9 g | Body weight change Δ over the four-week trial ([1]; 10 mg/kg): 0.8 g | Body weight ([1]; 10 mg/kg, Week 1): 24.2 g | Body weight ([1]; 10 mg/kg, Week 2): 24.8 g | Body weight ([1]; 10 mg/kg, Week 3): 24.3 g | Body weight ([1]; 10 mg/kg, Week 4): 25.0 g | antiproliferative activity in tumour cell lines [2]: significantly reduced tumour cell viability and growth in vitro | Tumour weight at necropsy ([3]; 1 mg): 0.0815 g | Tumour size expressed in volume ([3]; 1 mg/kg, Week 0): 40.59 mm^3 | Tumour size expressed in volume ([3]; 1 mg/kg, Week 1): 36.34 mm^3 | Tumour size expressed in volume ([3]; 1 mg/kg, Week 2): 65.15 mm^3 | Tumour size expressed in volume ([3]; 1 mg/kg, Week 3): 82.66 mm^3 | Tumour size expressed in volume ([3]; 1 mg/kg, Week 4): 110.23 mm^3 | Tumour weight at necropsy ([3]; 5 mg): 0.0380 g | tumour growth ([3]; 5 mg/kg): inhibited tumour growth | Tumour volumes reduced by ([3]; 5 mg/kg, intraperitoneal every second day, 4 weeks): 50% | Tumour size expressed in volume ([3]; 5 mg/kg, Week 0): 44.24 mm^3 | Tumour size expressed in volume ([3]; 5 mg/kg, Week 1): 30.47 mm^3 | Tumour size expressed in volume ([3]; 5 mg/kg, Week 2): 39.17 mm^3 | Tumour size expressed in volume ([3]; 5 mg/kg, Week 3): 43.73 mm^3 | Tumour size expressed in volume ([3]; 5 mg/kg, Week 4): 66.83 mm^3 | Tumour weight at necropsy ([3]; 10 mg): 0.0913 g | Tumour size expressed in volume ([3]; 10 mg/kg, Week 0): 46.33 mm^3 | Tumour size expressed in volume ([3]; 10 mg/kg, Week 1): 52.86 mm^3 | Tumour size expressed in volume ([3]; 10 mg/kg, Week 2): 71.23 mm^3 | Tumour size expressed in volume ([3]; 10 mg/kg, Week 3): 73.39 mm^3 | Tumour size expressed in volume ([3]; 10 mg/kg, Week 4): 154.29 mm^3 | reduction in tumour growth ([3]; 1 and 10 mg/kg, early exponential tumour growth in these groups): No reduction in tumour growth | viability at 1 µg/mL ([4]; MDA-MB, 1 ug/mL, read-out: average cell viability): 101% | viability at 10 µg/mL ([4]; MDA-MB, 10 ug/mL, read-out: average cell viability): 96% | viability at 50 µg/mL ([4]; MDA-MB, 50 ug/mL, read-out: average cell viability): 66% | viability at 100 µg/mL ([4]; MDA-MB, 100 ug/mL, read-out: average cell viability): 20%
